The test system of the assay is GDF8 signaling (p-SMAD-3 (Ser423/425)). The assay can be described thus: AlphaScreen SureFire SMAD3 (p-Ser423/425) assay, GDF8-stimulated cells (GDF pSMAD). The class given is cell-based. The conditions noted are these: Mus musculus, MPC-11, MPC11; GDF8-stimulated; p-SMAD3 AlphaScreen; read-out: GDF pSMAD (MPC11) (inhibition of GDF8 signaling). (In Alpha technology, singlet oxygen from a donor bead excites a nearby acceptor bead.)

The record followed here is patent publication US10858335B2 (Rigel Pharmaceuticals, Inc., priority 2014, dated 2020).

As for `COc1cc(NC(=O)c2cnc3ccc(-c4cccnc4-c4cccc(C)c4)cn23)cc(OC)c1OC` [compound 574, 6-(2-(m-Tolyl)pyridin-3-yl)-N-(3,4,5-trimethoxyphenyl)imidazo[1,2-a]pyridine-3-carboxamide], the IC50 is 853 nM.
The result for `COc1cc(NC(=O)c2cnc3ccc(-c4cccnc4-c4cccc(C5CC5)c4)cn23)cc(OC)c1OC` [compound 575, 6-(2-(3-Cyclopropylphenyl)pyridin-3-yl)-N-(3,4,5-trimethoxyphenyl)imidazo[1,2-a]pyridine-3-carboxamide] reads 1170 nM.
The result for `COc1cc(NC(=O)c2cnc3ccc(-c4cccnc4-c4cccc(C(F)(F)F)c4)cn23)cc(OC)c1OC` [compound 576, 6-(2-(3-(Trifluoromethyl)phenyl)pyridin-3-yl)-N-(3,4,5-trimethoxyphenyl)imidazo[1,2-a]pyridine-3-carboxamide] reads 3690 nM; that for `COc1cc(-c2cnc3ccc(-c4cccnc4-c4cccc(C)c4)cn23)cc(OC)c1OC` [compound 578, 6-(2-(m-Tolyl)pyridin-3-yl)-3-(3,4,5-trimethoxyphenyl)imidazo[1,2-a]pyridine], 2230 nM; that for `Cc1cc(-c2ncccc2-c2ccc3ncc(C(=O)O)n3c2)ccc1F` [compound 579, 6-(2-(4-Fluoro-3-methylphenyl)pyridin-3-yl)imidazo[1,2-a]pyridine-3-carboxylic acid], 12400 nM.
As for `Cc1cc(-c2ncccc2-c2ccc3ncc(C(=O)N4CCOCC4)n3c2)ccc1F` [compound 580, (6-(2-(4-Fluoro-3-methylphenyl)pyridin-3-yl)imidazo[1,2-a]pyridin-3-yl)(morpholino)methanone], the IC50 was found to be 8460 nM.
The result for `Cc1cc(-c2ncccc2-c2ccc3ncc(C(=O)N4CCN(C)CC4)n3c2)ccc1F` [compound 581, (6-(2-(4-Fluoro-3-methylphenyl)pyridin-3-yl)imidazo[1,2-a]pyridin-3-yl)(4-methylpiperazin-1-yl)methanone] reads 6310 nM.
The value for `COc1ccc(NC(=O)c2cnc3ccc(-c4cccnc4-c4ccc(F)c(C)c4)cn23)cc1OC` [compound 582, N-(3,4-Dimethoxyphenyl)-6-(2-(4-fluoro-3-methylphenyl)pyridin-3-yl)imidazo[1,2-a]pyridine-3-carboxamide] was 494 nM; that for `CCCNC(=O)c1cnc2ccc(-c3cccnc3-c3ccc(F)c(C)c3)cn12` [compound 583, 6-(2-(4-Fluoro-3-methylphenyl)pyridin-3-yl)-N-propylimidazo[1,2-a]pyridine-3-carboxamide] was 518 nM.
On to `CNC(=O)c1cnc2ccc(-c3cccnc3-c3ccc(F)c(C)c3)cn12` [compound 584, 6-(2-(4-Fluoro-3-methylphenyl)pyridin-3-yl)-N-methylimidazo[1,2-a]pyridine-3-carboxamide], for which the IC50 turned out to be 96.2 nM.
The value for `Cc1cc(-c2ncccc2-c2ccc3ncc(C(=O)NCCN4CCOCC4)n3c2)ccc1F` [compound 585, 6-(2-(4-Fluoro-3-methylphenyl)pyridin-3-yl)-N-(2-morpholinoethyl)imidazo[1,2-a]pyridine-3-carboxamide] was 510 nM; that for `CC(=O)c1cnc2ccc(-c3cccnc3-c3ccc(F)c(C)c3)cn12` [compound 586, 1-(6-(2-(4-Fluoro-3-methylphenyl)pyridin-3-yl)imidazo[1,2-a]pyridin-3-yl)ethan-1-one] was 617 nM; that for `CC(=O)c1cnc2ccc(-c3cccnc3-c3cccc(C)c3)cn12` [compound 587, 1-(6-(2-(m-Tolyl)pyridin-3-yl)imidazo[1,2-a]pyridin-3-yl)ethan-1-one] was 366 nM.
The result for `CC(=O)c1cnc2ccc(-c3cccnc3-c3cccc(C4CC4)c3)cn12` [compound 588, 1-(6-(2-(3-Cyclopropylphenyl)pyridin-3-yl)imidazo[1,2-a]pyridin-3-yl)ethan-1-one] reads 316 nM.
Take `CC(=O)c1cnc2ccc(-c3cccnc3-c3cccc(C(F)(F)F)c3)cn12` [compound 589, 1-(6-(2-(3-(Trifluoromethyl)phenyl)pyridin-3-yl)imidazo[1,2-a]pyridin-3-yl)ethan-1-one]: the IC50 came to 1220 nM.
For `Cc1cc(-c2ncccc2-c2ccc3ncc(C(=O)NCCN4CCN(C)CC4)n3c2)ccc1F` [compound 590, 6-(2-(4-Fluoro-3-methylphenyl)pyridin-3-yl)-N-(2-(4-methylpiperazin-1-yl)ethyl)imidazo[1,2-a]pyridine-3-carboxamide], the IC50 was found to be 514 nM.
The value for `Cc1cc(-c2ncccc2-c2ccc3ncc(C(=O)NCCCN4CCN(C)CC4)n3c2)ccc1F` [compound 591, 6-(2-(4-Fluoro-3-methylphenyl)pyridin-3-yl)-N-(3-(4-methylpiperazin-1-yl)propyl)imidazo[1,2-a]pyridine-3-carboxamide] was 333 nM; that for `Cc1cc(-c2ncccc2-c2ccc3ncc(C(=O)NC4CCN(C)CC4)n3c2)ccc1F` [compound 592, 6-(2-(4-Fluoro-3-methylphenyl)pyridin-3-yl)-N-(1-methylpiperidin-4-yl)imidazo[1,2-a]pyridine-3-carboxamide] was 205 nM; that for `Cc1cc(-c2ncccc2-c2ccc3ncc(C(=O)NC4CCOCC4)n3c2)ccc1F` [compound 593, 6-(2-(4-Fluoro-3-methylphenyl)pyridin-3-yl)-N-(tetrahydro-2H-pyran-4-yl)imidazo[1,2-a]pyridine-3-carboxamide] was 1860 nM.
For the compound `Cc1cc(-c2ncccc2-c2ccn3cncc3c2)ccc1F` [compound 594, 7-(2-(4-Fluoro-3-methylphenyl)pyridin-3-yl)imidazo[1,5-a]pyridine], the IC50 amounted to 570 nM.
In the case of `Cc1cccc(-c2ncccc2-c2ccn3cncc3c2)c1` [compound 595, 7-(2-(m-Tolyl)pyridin-3-yl)imidazo[1,5-a]pyridine], the IC50 came out at 1160 nM.
The value for `c1cc(-c2ncccc2-c2ccn3cncc3c2)cc(C2CC2)c1` [compound 596, 7-(2-(3-Cyclopropylphenyl)pyridin-3-yl)imidazo[1,5-a]pyridine] was 204 nM; that for `FC(F)(F)c1cccc(-c2ncccc2-c2ccn3cncc3c2)c1` [compound 597, 7-(2-(3-(Trifluoromethyl)phenyl)pyridin-3-yl)imidazo[1,5-a]pyridine] was 837 nM; that for `Cc1cc(-c2ncccc2-c2ccc3ncc(C(C)(C)O)n3c2)ccc1F` [compound 599, 2-(6-(2-(4-Fluoro-3-methylphenyl)pyridin-3-yl)imidazo[1,2-a]pyridin-3-yl)propan-2-ol] was 3880 nM.
The result for `[2H]C([2H])([2H])c1cccc(-c2ncccc2-c2ccc3nccn3c2)c1` [compound 600, 6-(2-(3-(Methyl-d3)phenyl)pyridin-3-yl)imidazo[1,2-a]pyridine] reads 179 nM; that for `[2H]C([2H])([2H])c1cccc(-c2ncccc2-c2ccc3ncc(C#N)n3c2)c1` [compound 601, 6-(2-(3-(Methyl-d3)phenyl)pyridin-3-yl)imidazo[1,2-a]pyridine-3-carbonitrile], 141 nM.
As to `[2H]C([2H])([2H])c1cccc(-c2ncccc2-c2ccn3nccc3n2)c1` [compound 602, 5-(2-(3-(Methyl-d3)phenyl)pyridin-3-yl)pyrazolo[1,5-a]pyrimidine], the IC50 was found to be 68.1 nM.
`[2H]C([2H])([2H])c1cccc(-c2ncccc2-c2ccc3ncsc3c2)c1` [compound 603, 6-(2-(3-(Methyl-d3)phenyl)pyridin-3-yl)benzo[d]thiazole]: the IC50 was found to be 109 nM.
`[2H]C([2H])([2H])c1cccc(-c2ncccc2-c2ccn3cncc3c2)c1` [compound 604, 7-(2-(3-(Methyl-d3)phenyl)pyridin-3-yl)imidazo[1,5-a]pyridine]: the IC50 stood at 8520 nM.
The result for `[2H]C([2H])([2H])c1cccc(-c2ncccc2-c2ccc3nccnc3c2)c1` [compound 605, 6-(2-(3-(Methyl-d3)phenyl)pyridin-3-yl)quinoxaline] reads 7940 nM; that for `Cc1cc(-c2ncccc2-c2ccc3ncc(C(=O)NCCN(C)C)n3c2)ccc1F` [compound 607, N-(2-(Dimethylamino)ethyl)-6-(2-(4-fluoro-3-methylphenyl)pyridin-3-yl)imidazo[1,2-a]pyridine-3-carboxamide], 705 nM; that for `Cc1cc(-c2ncccc2-c2ccc3ncc(C(=O)NCCCN(C)C)n3c2)ccc1F` [compound 608, N-(3-(Dimethylamino)propyl)-6-(2-(4-fluoro-3-methylphenyl)pyridin-3-yl)imidazo[1,2-a]pyridine-3-carboxamide], 326 nM.
As for `Cc1cc(-c2ncccc2-c2ccc3ncc(C(=O)NCCCN4CCOCC4)n3c2)ccc1F` [compound 609, 6-(2-(4-Fluoro-3-methylphenyl)pyridin-3-yl)-N-(3-morpholinopropyl)imidazo[1,2-a]pyridine-3-carboxamide], the IC50 is 319 nM.
The value for `Cc1cc(-c2ncccc2-c2ccc3ncc(C(=O)NCCN4CCCC4)n3c2)ccc1F` [compound 610, 6-(2-(4-Fluoro-3-methylphenyl)pyridin-3-yl)-N-(2-(pyrrolidin-1-yl)ethyl)imidazo[1,2-a]pyridine-3-carboxamide] was 648 nM; that for `Cc1cc(-c2ncccc2-c2ccc3ncc(C(=O)NCCCN4CCCCC4)n3c2)ccc1F` [compound 611, 6-(2-(4-Fluoro-3-methylphenyl)pyridin-3-yl)-N-(3-(piperidin-1-yl)propyl)imidazo[1,2-a]pyridine-3-carboxamide] was 114 nM; that for `Cc1cc(-c2ncccc2-c2ccc3ncc(C(=O)NCCCN4CCCC4=O)n3c2)ccc1F` [compound 612, 6-(2-(4-Fluoro-3-methylphenyl)pyridin-3-yl)-N-(3-(2-oxopyrrolidin-1-yl)propyl)imidazo[1,2-a]pyridine-3-carboxamide] was 408 nM.
The result for `Cc1cc(-c2ncccc2-c2ccc3ncc(C(=O)NCC(O)CO)n3c2)ccc1F` (stereo not shown) [compound 613, N-(2,3-Dihydroxypropyl)-6-(2-(4-fluoro-3-methylphenyl)pyridin-3-yl)imidazo[1,2-a]pyridine-3-carboxamide] reads 624 nM.
